From PubChem BioAssay AID2253 (Southern Research Specialized Biocontainment Screening …, 2010) come the findings set out here.

A word on the EC50: it is the midpoint of the concentration-response curve.

For this assay, the system named is THP-1 viability, CellTiter-Glo luminescence, 72 h. Briefly: human monocytic cell viability reduction – S. typhimurium screen hits, cytotoxicity control for Salmonella PhoP regulon inhibitors, dose response (AID 2253).
For the molecule `C=CCN(C(=O)c1cccc(S(=O)(=O)N2CCN(C)CC2)c1)c1nc(-c2ccccc2)cs1`, the EC50 is 49.4 µM.

`CC(=O)NC(c1ccc(C)cc1)c1cc([N+](=O)[O-])c2cccnc2c1O` (stereo not given): the EC50 was 6.41 µM.

For `Cc1cc(C)c2nc(NNC(=O)c3ccc(S(=O)(=O)N4CCCCC4)cc3)sc2c1`, the EC50 was 4.69 µM.

In the case of `O=C(NNc1c2ccccc2nc2ccccc12)c1ccccc1O`, the EC50 is 28.3 µM.

Take `CN(C)c1ccc(/C=C/c2ccc3c4ccccc4ccc3[n+]2-c2ccccc2)cc1`: the concentration for a half-maximal effect (EC50) was 0.26 µM.

As for `Cc1[nH]nc2c1C(c1cc(Br)cs1)C(C#N)=C(N)O2` (stereo not given), the EC50 was 11.2 µM.

Turning to `C=CCNc1ncnc2c1[nH]c1ccc(Cl)cc12`, the EC50 is 12.2 µM.

With `Cc1ccc(Nc2cc(C)c3ccc(O)cc3n2)cc1C`, the 50% effective concentration (EC50) was 17 µM.

For the molecule `O=C(N/N=C/c1ccc(Sc2ccccn2)o1)c1cc2ccccc2cc1O`, the 50% effective concentration (EC50) was 35.4 µM.

Consider `CCOC(=O)C[n+]1c(C)sc2ccc(OC)cc21`, for which the EC50 is 25.8 µM.

With `CCCc1cc(-c2nc(N)ncc2-c2ccc3c(c2)OCCCO3)c(O)cc1OC`, the EC50 was 19.9 µM.

With `Oc1cccc(/C=N/NC(=S)Nc2cccnc2)c1O`, the EC50 is 4.11 µM.

As to `CCOc1ccc(/C=C/C(=O)Nc2ccc(OC)cc2[N+](=O)[O-])cc1`, the EC50 is 27.5 µM.

Consider `N=c1n(CC(=O)c2ccc(Br)s2)c2ccccc2n1Cc1ccccc1`, for which the EC50 was 7.56 µM.

With `CN(C)c1ccc(/C=C/c2ccc3ccccc3[n+]2C)cc1`, the 50% effective concentration (EC50) is 0.3 µM.

For the molecule `CC(C)NCCCOc1ccc(Cl)cc1Br`, the EC50 is 44.7 µM.

Regarding `Cc1cccc(Nc2nc(NCc3ccco3)c3ccccc3n2)c1`, the concentration giving a half-maximal response (EC50) is 5.29 µM.

As to `CCn1c(SCc2nc3scc(-c4ccccc4)c3c(=O)[nH]2)nnc1-c1cccs1`, the concentration giving a half-maximal response (EC50) was 46.6 µM.

In the case of `C=CCc1ccccc1OCC(O)CN1CCN(CCN2C(=O)c3cccc4cccc(c34)C2=O)CC1` (stereo not given), the 50% effective concentration (EC50) is 16.8 µM.

Turning to `Nc1cccc2nc3ccccc3cc12`, the EC50 was 4.25 µM.

Consider `O=S(=O)(/N=C(/Nc1cccc2ccccc12)c1ccccc1)c1cccs1`, for which the 50% effective concentration (EC50) was 28.9 µM.

As for `COc1ccc(/C=C2\CN(Cc3ccccc3)C/C(=C\c3ccc(OC)cc3)C2=O)cc1`, the EC50 is 12.7 µM.

Turning to `CCCC(=O)NC(c1ccc(C)cc1)c1ccc2cccnc2c1O` (stereo not given), the EC50 is 0.46 µM.

Turning to `CN(c1cccc(Cl)c1)S(=O)(=O)c1cccc(C(=O)Nc2nc3ccccc3[nH]2)c1`, the EC50 was 13.3 µM.

On to `NC(N)=N/N=C/c1ccc(OCc2ccc(Cl)cc2)cc1`, for which the EC50 is 2.91 µM.

Regarding `O=C(Nc1nc2cc3c(cc2s1)OCO3)C1=COCCO1`, the 50% effective concentration (EC50) was 6.67 µM.

In the case of `CCCOc1ccc(C(=O)C(CCC(CNCC)C(=O)c2ccc(OCCC)cc2)CNCC)cc1` (stereo not given), the EC50 is 1.58 µM.

Turning to `Nc1nc2ccccc2n1CCOc1ccccc1Cl`, the 50% effective concentration (EC50) is 12.8 µM.

Turning to `COc1ccc(NC2=NC3(CCCCC3)N=C(N)N2)cc1`, the concentration giving a half-maximal response (EC50) is 35.1 µM.

In the case of `Cc1[nH]c2ccccc2c1/C=N/Nc1ccc(F)cc1F`, the EC50 was 48.5 µM.

As for `CN(O)/C=c1/ccc2c(n1)C(=O)C=CC=2`, the 50% effective concentration (EC50) was 23.3 µM.

With `Cn1c(NCc2cc(Br)ccc2O)nc2ccccc21`, the EC50 is 37.5 µM.

Regarding `NNC(=O)CNC(c1ccccc1)c1cc(Br)ccc1NC(=O)c1ccc(Br)cc1` (stereo not given), the EC50 is 39.5 µM.

As to `O=C1C2=C(NC(=S)NC2c2ccc(Cl)cc2)NC(c2ccc(Cl)cc2)N1c1ccc(Cl)cc1` (stereo not given), the EC50 was 11.3 µM.

In the case of `CCOc1ccc2c(c1)nc(SCC(=O)c1ccc(Br)s1)n2C`, the EC50 was 47.3 µM.

For the molecule `O=S(=O)(c1ccccc1)N(CC(O)Cn1c2ccccc2c2ccccc21)c1ccccc1` (stereo not given), the EC50 was 11.1 µM.

`CC1CCCC(C)N1/N=C/c1c[nH]c2ccc(Br)cc12` (stereo not given): the EC50 is 14.4 µM.

For `Cc1cc(SCC(=O)N/N=C/c2ccc(O)c(O)c2O)c(C)cc1Br`, the EC50 is 2.76 µM.

As for `CCCOc1ccc(Br)cc1CSC(=N)N`, the EC50 is 5.31 µM.

As for `O=C(N/N=C/c1cc([N+](=O)[O-])ccc1O)c1ccncc1`, the EC50 is 15.1 µM.

With `O=C(Nc1ccc2snnc2c1)Nc1cccc2ccccc12`, the EC50 was 33.7 µM.

For the molecule `CNc1nc(NCc2ccccc2)c2ccccc2n1`, the concentration for a half-maximal effect (EC50) is 10 µM.

For the molecule `CCCCn1c(/N=C/c2c[nH]c3ccccc23)nc2ccccc21`, the EC50 is 27.2 µM.

As to `c1ccc2c(c1)CCN(c1ncnc3c1[nH]c1ccccc13)C2`, the EC50 was 10.7 µM.

As to `S=C(NCc1cccnc1)Nc1ccc(Cl)c(Cl)c1`, the EC50 was 40 µM.

For the molecule `Nc1nonc1C(=O)NCCN=Cc1cc(Cc2ccccc2)cc(Br)c1O`, the concentration giving a half-maximal response (EC50) is 37.8 µM.

`Nc1cc2nsnc2cc1Br`: the concentration for a half-maximal effect (EC50) was 7.44 µM.

With `CCCCNCCCOc1cccc(Cl)c1Cl`, the half-maximal effective concentration (EC50) is 29.2 µM.

Consider `CC(C)c1ccc(C2C3CSCC=C3C(C#N)=C(N)C2(C#N)C#N)cc1` (stereo not given), for which the EC50 is 39.7 µM.

Regarding `CC(C)c1ccc(NC(=O)N(CCc2nc3ccccc3[nH]2)C2CCCC2)cc1`, the EC50 is 43.1 µM.

Consider `Nc1ccc(Nc2ccccc2)cc1`, for which the concentration for a half-maximal effect (EC50) was 11.6 µM.

As to `COc1ccc(C(=O)N2CCc3cc(OC)c(OC)cc3C2)cc1OC`, the concentration for a half-maximal effect (EC50) is 36.7 µM.

Take `CCc1ccc(NC(=O)C[n+]2cc(-c3ccc(C)cc3)n3c2CCC3)cc1`: the EC50 is 5.74 µM.

With `C/C(=N\Nc1nc2ccccc2[nH]1)c1ccccn1`, the concentration giving a half-maximal response (EC50) was 0.92 µM.

In the case of `COc1ccc(OC)c(/C=N/NC(=O)c2cc3c(OC)c(OC)ccc3[nH]2)c1`, the concentration for a half-maximal effect (EC50) was 43.8 µM.

As for `Cc1cc2nc3ccc(=[N+](C)C)cc-3sc2cc1N`, the 50% effective concentration (EC50) is 1 µM.

Consider `CCCCCCCCCCCCCCCC[n+]1cccc2ccccc21`, for which the EC50 is 0.27 µM.

With `CCCn1c(NCc2c[nH]c3ccccc23)nc2ccccc21`, the EC50 is 22.9 µM.

Take `CCN1CCN(C(c2ccc(C(F)(F)F)cc2)c2ccc3cccnc3c2O)CC1` (stereo not given): the EC50 is 1.78 µM.

With `c1ccc(-c2cccc(-c3ccccn3)n2)nc1`, the EC50 was 0.45 µM.

In the case of `Clc1ccc(Nc2ccc(NCc3ccccc3)nn2)cc1`, the half-maximal effective concentration (EC50) is 21.3 µM.

As for `Clc1ccc(C[n+]2cc(-c3ccc(Cl)cc3)n3c2CCC3)cc1`, the EC50 was 17.7 µM.

Consider `O=C(N/N=C/C1C(c2ccccc2)C1(Cl)Cl)c1cccc(Cl)c1` (stereo not given), for which the concentration for a half-maximal effect (EC50) was 44 µM.

For `COc1ccccc1-c1cc(C(=O)Nc2cc(C)nn2-c2ccccc2)no1`, the EC50 was 25.6 µM.

`COc1ccc(-c2cn[nH]c2-c2ccc(OCc3ccc([N+](=O)[O-])cc3)cc2O)cc1`: the half-maximal effective concentration (EC50) is 15.1 µM.

For `O=C1c2ccccc2C(=O)c2[nH]c(=O)[nH]c21`, the EC50 is 4.83 µM.

Regarding `Cc1scc(C(=O)N/N=C/c2ccc([N+](=O)[O-])o2)c1C`, the EC50 was 19.9 µM.

On to `CCOc1ccc(CNc2ccc(N3CCCC3)cc2)cc1`, for which the 50% effective concentration (EC50) was 11.8 µM.

Consider `COc1ccc(NC(C)C(=O)Nc2ccc(C(C)(C)C)cc2)cc1Cl` (stereo not given), for which the concentration for a half-maximal effect (EC50) is 40.7 µM.

As to `CN(Cc1ccccc1)CC(O)COc1ccc(CNCc2ccc(Cl)s2)cc1` (stereo not given), the half-maximal effective concentration (EC50) was 33.4 µM.

Regarding `Clc1ccc(OCCN2CCN(c3ncnc4sccc34)CC2)cc1`, the EC50 is less than 0.1 µM.

With `CCOC(=O)Cn1nnnc1C(C(C)C)N(Cc1cccs1)Cc1cc2cc(C)ccc2[nH]c1=O` (stereo not given), the concentration giving a half-maximal response (EC50) is 10.5 µM.

As for `Oc1ccc(Cl)cc1Cc1cc(Cl)ccc1O`, the concentration giving a half-maximal response (EC50) was 19.6 µM.

With `O=C(CN1CC(c2ccccc2)CC1=O)N/N=C/c1cc(Br)ccc1O` (stereo not given), the concentration giving a half-maximal response (EC50) was 3.74 µM.

As for `c1ccc2c(C3=NNC(=NC4CCCCC4)SC3)c[nH]c2c1`, the EC50 is 19.1 µM.
